# Measured values taken from patent US20130137706A1, “Antimicrobial Molecules For Treating Multi-Drug Resistant and Extensively Drug Resistant Strains Of Mycobacterium” (POLYMEDIX, INC., priority 2008, published 2013).
# Read-outs that look alike come from different tables or passages of the source.
# Tests used:
# [1] = system: M. tuberculosis (H37Rv strain); experiment: Microplate Alamar Blue Assay (MABA) susceptibility assay in BACTEC 12B medium; type: cell-based; settings: Mycobacterium tuberculosis
# monkey VERO cells = experiment: VERO cell cytotoxicity assay (luminescent ATP cell viability, 72 hour exposure); type: cell-based; settings: Primates
# [2] = H37Rv strain, MABA, 90% reduction in fluorescence relative to controls, read-out: IC90 M. tuberculosis (H37Rv strain)
# [3] = Table 1, H37Rv strain, read-out: IC90 value (v. M. tuberculosis)
# [4] = Vero, summary of Table 1, read-out: EC50 value (v. Monkey VERO Cells)
# [5] = VERO cells, 72 hour exposure, ATP luminescence, read-out: EC50 VERO cells
Compound,"IC90 [1, 2]","IC90 [1, 3]",EC50 (monkey VERO cells; [4]),EC50 (monkey VERO cells; [5])
CC(C)(C)c1cc(N)c(SCCNC(=N)N)c(NC(=O)c2cc(OCCNC(=N)N)cc(C(=O)Nc3cc(C(C)(C)C)cc(N)c3SCCNC(=N)N)c2)c1 [Compound 1],2.2 µg/mL,< 5 µg/mL,> 300 µg/mL,> 300 µg/mL
CC(C)(C)c1cc(N)c(SCCNC(=N)N)c(NC(=O)c2cc(C(=O)Nc3cc(C(C)(C)C)cc(N)c3SCCNC(=N)N)c(OCCNC(=N)N)cc2OCCNC(=N)N)c1 [Compound 2],4.5 µg/mL,< 5 µg/mL,> 300 µg/mL,> 300 µg/mL
N=C(N)NCCCCC(=O)Nc1cccc(NC(=O)c2cc(C(=O)Nc3cccc(NC(=O)CCCCNC(=N)N)c3SCCN)ncn2)c1SCCN [Compound 3],3.6 µg/mL,< 5 µg/mL,> 100 µg/mL,> 100 µg/mL
CC(C)(C)c1cc(NC(=O)CCCCNC(=N)N)c(SCCN)c(NC(=O)Nc2cc(C(C)(C)C)cc(NC(=O)CCCCNC(=N)N)c2SCCN)c1 [Compound 4],18.4 µg/mL,< 20 µg/mL,> 300 µg/mL,> 300 µg/mL
